The text below walks through data of patent publication US20060030616A1, “Anhydride modified cantharidin analogues useful in the treatment of cancer” (priority 1998, published 2006).

Read-outs that look alike come from different tables or passages of the source.

Data set [1] relates to protein phosphatase 1 (PP1). In words: Inhibition of protein phosphatase 1, [32P]-phosphorylase substrate. In kind it is biochemical, chicken. The following applies: for Inhibition of PP1 (%): initial screening at 100 mM (so in the source). On the procedure: (§1) All synthesised compounds were tested for their ability to inhibit protein phosphatases 1 and 2A. Initial investigations were carried out at 100 mM. Promising analogues were then assayed in triplicate for estimation of IC50 values.
(§2) Protein phosphatase 1 and 2A were partially purified from chicken skeletal muscle essentially as described by Cohen Protein phosphatase activity was measured at 37° C. in 50 mM Tris-HCl buffer (pH 7.4), 0.1 mM EDTA, 5 mM caffeine, 0.1% 2-mercaptoethanol and 1 mg/ml bovine serum albumin using […] [^32P]-phosphorylase as substrate. The total assay volume was […]. The assay conditions were restricted to 20% dephosphorylation to ensure linearity and inhibition of protein phosphatase activity was determined by including cantharidin or its analogues at the required concentrations in the reaction buffer. Reactions were terminated by the addition of 0.1 ml ice cold 20% trichloroacetic acid. Precipitated protein was pelleted by centrifugation and the radioactivity in the supernatant measured by liquid scintillation counting. Data is expressed as the percentage inhibition with respect to a control (absence of a competing compound) incubation.
(§3) Anhydrides and simple analogues were synthesised according to literature procedures (Eggelte et. al; 1973), and then subjected to a PP1 and PP2A bio-assay (see biochemistry) to determine their ability to inhibit these enzymes. The results of initial screening at 100 mMs are shown in Table 4, along with IC50 values in some instances.

For data set [2], the target named is protein phosphatase 2A (PP2A) (Gallus gallus, UniProt P48463). Nature of the data set: Inhibition of protein phosphatase 2A, [32P]-phosphorylase substrate. In kind it is biochemical, chicken. Details: inhibition: dose or concentration left out as unconfirmed. As for the experimental part: as §1, §2, §3
Sequence of protein phosphatase 2A (PP2A) (Gallus gallus, UniProt P48463) (P48463 whole entry): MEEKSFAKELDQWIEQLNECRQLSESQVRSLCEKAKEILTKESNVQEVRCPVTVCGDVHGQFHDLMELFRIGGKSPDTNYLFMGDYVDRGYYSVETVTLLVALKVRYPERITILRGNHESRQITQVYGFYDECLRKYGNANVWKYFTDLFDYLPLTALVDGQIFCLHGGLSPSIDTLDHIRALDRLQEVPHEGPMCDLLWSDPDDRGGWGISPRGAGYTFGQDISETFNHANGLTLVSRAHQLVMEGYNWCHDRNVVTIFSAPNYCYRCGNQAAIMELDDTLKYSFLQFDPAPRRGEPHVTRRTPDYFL
Data set [3] can be described thus: Stability under assay conditions. The data set is classed as physicochemical. Conditions: PP assay conditions.
In data set [4] the test system is protein phosphatase 2A (PP2A). Conditions: cited from earlier work; for IC50: background art.
The subject of a further data set is HT29 cells. Nature of the data set: MTT cytotoxicity assay, 72 h. The data set is classed as cell-based, human. The following applies: HT29, p53 mt; read-out: IC50 (mean ± SE) after 72 h continuous exposure. On the procedure:
(§4) Cells in a subconfluent phase are transferred to 96-well microtitre plates. L1210 cells are plated at a density of 1000 cells/well in 100 μl medium, while all other cell lines are plated at a density of 2000-25000 cells/well. The cells are left for 24 h prior to treatment to ensure exponential growth has been achieved, 24 h after plating (day 0), 100 μl of phosphatase inhibitor is added to each well, control wells received 100 μl of medium only. Drug exposure time is 72 h (day 3). The effect of phosphatase inhibition is tested in triplicate over a concentration range of […]−1×10^−8 M. Growth inhibitory effects are evaluated using the MTT assay and absorbance read at […]. The IC50 is the drug concentration at which cell growth is 50% inhibited based on the difference of optical density on day 0 and day 3 of drug exposure. Cytotoxicity is evaluated using a spectrophotometric assay which determines the percentage of cell growth following exposure of the cells to various concentrations of the phosphatase inhibitors for a period of 72 hours. The subsequent dose response curve is used to calculate IC50 values (the drug concentration at which cell growth is 50% inhibited).
(§5) Anti-cancer screening of the protein phosphatase inhibitors is assessed using the MTT assay. This assay determines cell viability by the ability of mitochondrial dehydrogenase to produce formazan crystals from 3-(4,5-dimethylthiazol-2-yl)-2,5-diphenyltetrazolium bromide. The viable cell number/well is directly proportional to the production of formazan, which following solubilization, can be measured spectrophotometrically (540 nm). This technique is also used by the National Cancer Institute to screen for new anticancer agents.
(§6) As described herein a number of cantharidin analogues have been synthesised and tested for their anticancer activity in nine cancer cell lines using the MTT assay after 72 h exposure. These new analogues are shown in FIG. 2 and have been designated MK-1 through to MK-9.
On the technique in general: Formazan colour is commonly taken as a measure of viable cells.

In the next data set the test system is HL60 cells. In words: MTT cytotoxicity assay, 72 h. In kind it is cell-based, human. The following applies: HL60, p53 nul; read-out: IC50 (mean ± SE) after 72 h continuous exposure. On the procedure: as §4, §5, §6
The next data set relates to WiDr cells. In words: MTT cytotoxicity assay, 72 h. The data set is classed as cell-based, human. The following applies: p53 mt, read-out: IC50 (mean ± SE) after 72 h continuous exposure. On the procedure: as §4, §5, §6
The next data set has as its system A2780 cells. In words: MTT cytotoxicity assay, 72 h. In kind it is cell-based, human. The following applies: A2780, p53 wt; read-out: IC50 (mean ± SE) after 72 h continuous exposure. On the procedure: as §4, §5, §6
The next data set relates to 143B cells. Nature of the data set: MTT cytotoxicity assay, 72 h. In kind it is cell-based, human. The following applies: p53 mt, read-out: IC50 (mean ± SE) after 72 h continuous exposure. On the procedure: as §4, §5, §6
The test system of the next data set is SW480 cells. In words: MTT cytotoxicity assay, 72 h. The data set is classed as cell-based, human. Conditions: SW480, p53 mt; read-out: IC50 (mean ± SE) after 72 h continuous exposure. As for the experimental part:
as §4, §5, §6

For a further data set, the system named is ADDP cells. In words: MTT cytotoxicity assay, 72 h. Conditions: p53 mt, read-out: IC50 (mean ± SE) after 72 h continuous exposure. In kind it is cell-based, human. As for the experimental part:
as §4, §5, §6

In a further data set the test system is HCT116 cells. Nature of the data set: MTT cytotoxicity assay, 72 h. The following applies: HCT116, p53 wt; read-out: IC50 (mean ± SE) after 72 h continuous exposure. The data set is classed as cell-based, human. As for the experimental part:
as §4, §5, §6

The next data set concerns L1210 cells. In words: MTT cytotoxicity assay, 72 h. The data set is classed as cell-based, murine. Conditions: L1210, p53 wt; read-out: IC50 (mean ± SE) after 72 h continuous exposure. As for the experimental part:
as §4, §5, §6

In another data set the test system is nine cancer cell lines. In words: MTT cytotoxicity assay, 72 h, ranges over cell line panel. In kind it is cell-based. On the procedure: as §4, §5, §6
Data set [5] concerns the target protein phosphatase 1 (PP1). Conditions: background art; cited from earlier work.
[6] abbreviates: nine cell lines, read-out: IC50 range across all cell lines tested.

For `COC(=O)C1C2C=CC(S2)C1C(=O)OC` (stereo not shown), in [1], the “Inhibition of PP1 (%)” value is given as 3%.
On the same count and under the same terms, for `O=C1NC(=O)C2C3CCC(S3)C12` (stereo not shown) the value was 15%.
As to `O=C1OC(=O)C2C3CCC(O3)C12` (stereo not shown) [Compound 1], the inhibition (in general, the change of the read-out against control, counted positive when it falls) in [2] was determined as 97%. Further, in data set [1], the IC50 – broadly, the midpoint of a concentration-inhibition curve – is 2.4 µM; the “Selectivity PP2A/PP1” value was determined as 0.875; the “Inhibition of PP1 (%)” value was 90%.
For the compound `O=C1OC(=O)C2C3C=CC(O3)C12` (stereo not shown) [Compound 2, norcantharidin, reference compound], the inhibition in [2] is 95%.
On to `O=C1OC(=O)[C@H]2[C@@H]1[C@H]1CC[C@H]2O1` [Compound 2, norcantharidin], for which the “Stability under assay conditions” value in [3] was “rapid conversion to the dicarboxylic acid”. Also, in data set [2] (initial screening at 100 mM (so in the source)), the “Inhibition of PP2A (%)” value was 95%. Besides, the “Previously reported PP2A selectivity” value in data set [4] (PP2A over PP1) is on record as about 10 fold.
With `COC(=O)C1C2C=CC(O2)C1C(=O)OC` (stereo not shown) [Compound 3], in [2], the inhibition amounted to 6%. Moreover, in data set [1], the midpoint of inhibition, the IC50, lay at 50 µM; the “Selectivity PP2A/PP1” value is on record as over 200; the “Inhibition of PP1 (%)” value is listed as 46%.
`CO[C@H]1OC(=O)C2C3CCC(O3)C21` (stereo partly shown) [Compound 4] returned an inhibition in data set [2] of 11%. The “Inhibition of PP1 (%)” value in [1] stood at 13%.
In the same order, the values of `CO[C@@H]1OC(=O)C2C3CCC(O3)C21` (stereo partly shown) [Compound 5] are 8% and 15%.
As to `O=C1OC(O)C2C3CCC(O3)C12` (stereo not shown) [Compound 6], the inhibition in data set [2] stood at 11%. Also, the “Inhibition of PP1 (%)” value in data set [1] is listed as 9%.
In turn, `O=C1OCC2C3CCC(O3)C12` (stereo not shown) [Compound 7] had an inhibition in [2] of 21%.
As to `O=C1NC(=O)C2C3C=CC(S3)C12` (stereo not shown) [MK-1], the IC50 in the data set on HT29 cells, with HL60 cells, with WiDr cells, in the data set with A2780 cells, in the data set on 143B cells and in the data set with SW480 cells was over 1000 µM throughout. The IC50 in the data set with ADDP cells, in the data set with HCT116 cells, in the data set with L1210 cells and in the data set with nine cancer cell lines (setting [6]) was over 1000 µM in each case.
As to `O=C(O)C1C2C=CC(O2)C1C(=O)Oc1ccccc1` (stereo not shown) [MK-3], the IC50 in the data set on HT29 cells came out at 530 ± 112 µM; in the data set with HL60 cells, 247 ± 55 µM; in the data set with WiDr cells it was 620 ± 31 µM; in the data set with A2780 cells, 317 ± 17 µM; in the data set with 143B cells, 665 ± 225 µM; in the data set with SW480 cells it was 444 ± 27 µM. Also, the IC50 with ADDP cells was over 1000 µM; in the data set with HCT116 cells it was over 1000 µM; in the data set on L1210 cells, 647 ± 132 µM; in the data set with nine cancer cell lines (setting [6]), at least 247 µM.
With `COC1OC(=O)C2C3CCC(O3)C12` (stereo not shown) [MK-5], the IC50 in the data set with HT29 cells was 28 ± 1 µM; with HL60 cells, 323 ± 13 µM; with WiDr cells it was 31 ± 10 µM; with A2780 cells, 567 ± 109 µM; with 143B cells, over 1000 µM; with SW480 cells it was 247 ± 14 µM. Besides, the half-maximal inhibitory concentration (IC50) was 260 ± 40 µM in the data set on ADDP cells; 143 ± 23 µM in the data set with HCT116 cells; over 1000 µM in the data set with L1210 cells; 28 to 247 µM in the data set with nine cancer cell lines (colon lines, read-out: IC50 range in human colon cancer cell lines); at least 323 µM with nine cancer cell lines (leukaemia lines, read-out: IC50 range in leukaemia cells); 260 to 567 µM with nine cancer cell lines (ovarian lines, read-out: IC50 range in ovarian cells).
Regarding `C=C1[C@@H](O)[C@@H]2O[C@]3(CC[C@H](/C=C/[C@@H](C)[C@@H]4CC(C)=C[C@@]5(O[C@H](C[C@@](C)(O)C(=O)O)CC[C@H]5O)O4)O3)CC[C@H]2O[C@@H]1[C@@H](O)C[C@H](C)[C@H]1O[C@@]2(CCCCO2)CC[C@H]1C` [Okadaic acid], the IC50 was 0.001 µM in [4] and 0.06 µM in data set [5].
Turning to `O=C1SC(=O)[C@H]2[C@@H]1[C@@H]1CC[C@H]2O1` [endothal thioanhydride], the “Potency relative to cantharidin” value in data set [4] is listed as “three fold more potent than cantharidin”.
For the compound calyculin, the IC50 is 0.002 µM in data set [4] and 0.0005 to 0.001 µM in data set [5].
